According to patent publication US6818665B2, “Treatment of obstructive sleep apnea” (priority 2003, dated 2004):

Tested on: OSA patients
Experiment: oximeter tests / sleeping registration of OSA patients
Format: in vivo
Text: The medical treatment of OSA must be effective, inexpensive and without any side effects because it must be ongoing for the rest of the patient's life during the sleeping period regardless of the time of the day or night. By conducting regular oximeter tests in connection with the fitting of mechanical assistance, it has been concluded that anti-oxidants, such as tokoferole, has some effect. Hormones that govern the sleep initiation during for example, jet lag, such melatonin that is formed in a gland from the amino-acid tryptophane with serotonin as an intermediate step. […] The corresponding effect has been noticed when the intake has stopped and this effect is normally quicker.
DHEA prevents unwanted complete or total (100%) relaxation of the muscles in the throat region caused melatonin. […] ACTH may be used to increase the production of DHEA. Melatonin may be taken as tablets and lasts about 24 hours. Preferably, melatonin is taken at night. A suitable melatonin dose may be about 0.5-5 mg. DHEA may also be taken as tablets and lasts about 24 hours. Preferably, DHEA is taken in the morning. A suitable DHEA dose may be about 1-5 mg. Of course, melatonin and DHEA may be administered at other times of the day.

Compound: C[C@]12CC[C@H](O)CC1=CC[C@@H]1[C@@H]2CC[C@]2(C)C(=O)CC[C@@H]12 [DHEA, dehydroepiandrosterone]
- effect of parallel intake on the desired effect (reduced desaturations and SpO2 reduction) (parallel intake with melatonin, especially in combination with ACTH): synergistic increase of the desired effect

Compound: tokoferole
- effect in regular oximeter tests (anti-oxidants, oximeter tests in connection with the fitting of mechanical assistance): some effect

Compound: COc1ccc2[nH]cc(CCNC(C)=O)c2c1 [melatonin, 5-metoxy-N-acetyletryptamine]
- effect on the sleeping registration of OSA patients (number of desaturations and level of SpO2 reduction below 90%) (low dose 0.5-5 mg depending on age, 10-80 years): distinct effect
- time to optimal effect (regular intake): after a couple of weeks
